In ChEMBL document CHEMBL3044553, “Amino steroids as antimalarial agents” (2008) one finds MIC data, which are given here for eleven compounds.

≈ marks a conversion by molar mass, not a printed value.

Broadly, the MIC is the least concentration at which growth counts as inhibited.

This assay deals with Plasmodium falciparum. Briefly: Antimalarial activity against chloroquine-sensitive Plasmodium falciparum NF54 assessed as inhibition of maturation of rings into schizonts stage. It counts as functional.
Regarding `CCCCNCC[C@@H](C)[C@H]1CC[C@H]2[C@@H]3CC[C@@H]4C[C@H](OC(C)=O)CC[C@]4(C)[C@H]3C[C@H](OC(C)=O)[C@]12C`, the MIC was greater than 50 µg/mL. In the case of `CC(=O)O[C@@H]1CC[C@@]2(C)[C@H](CC[C@@H]3[C@@H]2C[C@H](OC(C)=O)[C@]2(C)[C@@H]([C@H](C)CCNC(C)C)CC[C@@H]32)C1`, the MIC was greater than 50 µg/mL. In the case of `CC(=O)O[C@@H]1CC[C@@]2(C)[C@H](CC[C@@H]3[C@@H]2C[C@H](OC(C)=O)[C@]2(C)[C@@H]([C@H](C)CCNCc4ccccc4)CC[C@@H]32)C1`, the MIC was found to be 50 µg/mL (≈ 93 µM). For the compound `CC(=O)O[C@@H]1CC[C@@]2(C)[C@H](CC[C@@H]3[C@@H]2C[C@H](OC(C)=O)[C@]2(C)[C@@H]([C@H](C)CNCCCCNc4ccnc5cc(Cl)ccc45)CC[C@@H]32)C1`, the MIC came to 1 µg/mL (≈ 1.5 µM). For `CC(=O)O[C@@H]1CC[C@@]2(C)[C@H](CC[C@@H]3[C@@H]2C[C@H](OC(C)=O)[C@]2(C)[C@@H]([C@H](C)CNCCCNc4ccnc5cc(Cl)ccc45)CC[C@@H]32)C1`, the minimal inhibitory concentration (MIC) was 0.5 µg/mL (≈ 0.766 µM). For the compound `CCCCNC[C@@H](C)[C@H]1CC[C@H]2[C@@H]3CC[C@@H]4C[C@H](OC(C)=O)CC[C@]4(C)[C@H]3C[C@H](OC(C)=O)[C@]12C`, the MIC is greater than 10 µg/mL. As for `CC(=O)O[C@@H]1CC[C@@]2(C)[C@H](CC[C@@H]3[C@@H]2C[C@H](OC(C)=O)[C@]2(C)[C@@H]([C@H](C)CNC(C)C)CC[C@@H]32)C1`, the MIC is 10 µg/mL (≈ 21 µM). Under `CC(=O)O[C@@H]1CC[C@@]2(C)[C@H](CC[C@@H]3[C@@H]2C[C@H](OC(C)=O)[C@]2(C)[C@@H]([C@H](C)CNCc4ccccc4)CC[C@@H]32)C1` stands 2 µg/mL (≈ 3.82 µM); under `NCCCNc1ccnc2cc(Cl)ccc12`, 10 µg/mL (≈ 42.4 µM). Regarding `NCCCCNc1ccnc2cc(Cl)ccc12`, the MIC was determined as 2 µg/mL (≈ 8.01 µM). As to `CCN(CC)CCCC(C)Nc1ccnc2cc(Cl)ccc12` (stereo unspecified) [CHLOROQUINE], the MIC worked out at 0.04 µg/mL (≈ 0.125 µM).
